Measured values reported in PMC6225178 (Molecules : A Journal of Synthetic Chemistry and Natural …, 2018).

Legend:
DPPH assay = settings: for IC50: 30 min incubation at room temperature, absorbance 517 nm, n.a. ^c = no protection detected, n.a. ^d = IC50 > 5 mM
Protocol: The 2,2-diphenyl-1-picrylhydrazyl (DPPH) assay was performed using a previously reported method with a modification. A series of samples consisting of 900 μL of the 0.04 mg/mL methanolic solution of DPPH and different concentrations of the compounds (100 μL) were prepared. Then, the absorbance at 517 nm was measured after a 30 min incubation at room temperature. The half maximal inhibitory concentration (IC50) was used as an indicating measure of the scavenging activity.

[1] = Oxidation inhibition of the o/w emulsion (TBARS); settings: for Inhibition of Oxidation of o/w Emulsion: determined at 100 µM, oxidation induced with Mohr's salt 5 mM, TBARS, n.a. ^c = no protection detected; for protection against the induced oxidation (in words): o/w emulsion model
Protocol: The emulsion containing 15 mg of sorbitan sesquioleate, 50 mg of flaxseed oil, and 2 mL of 10 mM Tris-HCl buffer, pH 7.4, was prepared by the method. Determination of the oxidation inhibition of the o/w emulsion was carried out according to a procedure described previously, using 20 μL of the 1:1 (v/v) buffer-diluted emulsion, methanolic solution of each compound (final concentration 100 μM), and ammonium iron(II) sulfate hexahydrate (Mohr′s salt) (5 mM). Thiobarbituric acid reacting substances (TBARS) were determined according to [44].

[2] = tested on: normal human dermal fibroblast (NHDF) cell line; assay: Cell viability assay (MTT) in the NHDF cell line; format: cell-based; settings: highest concentration
Protocol: The cytotoxicity test was performed as described in [44] using the NHDF cell line treated with the methanolic solution of the tested compounds to obtain the final concentrations of 12.5, 25, 50, 100, 200, or 250 µM, and incubation for 24 and 48 h. Cell viability was assessed by the MTT method.

| Structure (SMILES) | IC50 (DPPH assay) [µM] | DPPH scavenging ability (in words) (DPPH assay) | Inhibition of Oxidation of o/w Emulsion [1] | effect on viability of NHDF cells after 48 h (in words) [2] | antioxidant activity compared with caffeic acid (in words) [1] | protection against the induced oxidation (in words) [1] |
| --- | --- | --- | --- | --- | --- | --- |
| COC(=O)/C=C/c1ccccc1O [Compound 9, 3-(2.′-Hydroxyphenyl)-(E)-propenoic acid methyl ester] | – | no scavenging ability | 2.6 ± 1.5 | – | – | – |
| COC(=O)/C=C/c1cccc(O)c1 [Compound 10, 3-(3′-Hydroxyphenyl)-(E)-propenoic acid methyl ester] | – | no scavenging ability | 18.4 ± 2.2 | – | – | – |
| CC(=O)/C=C/c1ccccc1O [Compound 6, 4-(2′-hydroxyphenyl)-3(E)-buten-2-one] | – | no scavenging ability | – | – | – | – |
| COC(=O)/C=C/c1ccc(O)cc1 [Compound 8, 3-(4′-Hydroxyphenyl)-(E)-propenoic acid methyl ester] | – | no scavenging ability | 22.7 ± 6.4 | – | – | – |
| COc1cc(/C=C/C(C)=O)ccc1O [Compound 20, 4-(3′-methoxy-4′-hydroxyphenyl)-3(E)-buten-2-one] | 61.8 | – | 7.9 ± 2.1 | this effect after 48 h was not clearly noticeable | – | – |
| O=C(O)/C=C/c1ccc(O)c(O)c1 [CA, caffeic acid, reference compound] | 32.2 | – | 26.1 ± 2.9 | – | – | – |
| CC(=O)/C=C/c1ccc(O)cc1 [Compound 16, 4-(4′-hydroxyphenyl)-3(E)-buten-2-one] | – | no scavenging ability | 6.8 ± 4.4 | – | – | – |
| CC(=O)/C=C/c1cccc(O)c1 [Compound 15, 4-(3′-hydroxyphenyl)-3(E)-buten-2-one] | – | no scavenging ability | – | – | – | – |
| COC(=O)/C=C/c1ccc(O)c(OC)c1 [Compound 14, 3-(4′-hydroxy-3-metoxyphenyl)-(E)-propenoic acid methyl ester] | 58.9 | – | 14.8 ± 2 | – | – | – |

Second part, led by results:

| IC50 (DPPH assay) [µM] | Structure (SMILES) | DPPH scavenging ability (in words) (DPPH assay) | Inhibition of Oxidation of o/w Emulsion [1] | effect on viability of NHDF cells after 48 h (in words) [2] | antioxidant activity compared with caffeic acid (in words) [1] | protection against the induced oxidation (in words) [1] |
| --- | --- | --- | --- | --- | --- | --- |
| 1020 | COC(=O)/C=C/c1ccc(O)cc1O [Compound 11, 3-(2′,4′-dihydroxyphenyl)-(E)-propenoic acid methyl ester] | – | 33.7 ± 6.5 | – | – | – |
| 53.3 | COC(=O)/C=C/c1cc(O)c(O)cc1O [Compound 13, 3-(2′,4′,5′-trihydroxyphenyl)-(E)-propenoic acid methyl ester] | – | 38.6 ± 2.3 | this effect after 48 h was not clearly noticeable | higher antioxidant activity than caffeic acid | highest protection against the induced oxidation |
| 18.6 | COC(=O)/C=C/c1ccc(O)c(O)c1O [Compound 12, 3-(2′,3′,4′-trihydroxyphenyl)-(E)-propenoic acid methyl ester] | – | 55.5 ± 2 | – | higher antioxidant activity than caffeic acid | highest protection against the induced oxidation |
| 16.8 | CC(=O)/C=C/c1ccc(O)c(O)c1O [Compound 18, 4-(2′,3′,4′-trihydroxyphenyl)-3(E)-buten-2-one] | – | 28.6 ±4 | – | higher antioxidant activity than caffeic acid | highest protection against the induced oxidation |
| 688 | CC(=O)/C=C/c1ccc(O)cc1O [Compound 17, 4-(2′,4′-dihydroxyphenyl)-3(E)-buten-2-one] | – | 4.6 ± 1.3 | – | – | – |
